{"source": "patent US11311576B2", "about": "“Methods of use for CAR T cells” (Seattle Children's Hospital, priority 2018, dated 2022)", "key": {"HOS-FRα tumor": {"test_system": "HOS-FRα tumor", "experiment": "CRS toxicity and sodium fluorescein rescue in HOS-FRα tumor-bearing mice", "type": "in vivo", "conditions": "intravenous ~95 mg/kg on day 13, plasma 6 hours later, 35 million total CAR-T cells", "protocol": "All animal care and use were performed according to NIH guidelines and in compliance with protocols approved by the Purdue University Animal Use and Care Committee. Female 4 to 5-week-old NOD/SCID gamma (NSG™) mice (stock number: 005557) were purchased from The Jackson Laboratory (Bar Harbor, Me.). Unless specifically indicated, all animals were maintained on a FA-deficient diet (TestDiet, St. Louis, Mo.) upon arrival and throughout the study. To establish subcutaneous xenografts, MDA-MB-231 and HOS-FRα were implanted in the right flank region at 2.5×10^6 and 1×10^6 cells per animal, respectively. For intravenous xenografts, THP1-FRb cells were inoculated at 5×10^6 cells per animal. Subcutaneous tumors were measured 2-3 times per week with a caliper and calculated using the ellipsoidal formula […]. […] All animal doses (CAR-T cells, EC17, sodium fluorescein) were given intravenously.\nDepending on the CAR-T cell dose and how EC17 is administered, tumor-bearing mice receiving FITC-specific CAR-T cells can experience severe CRS and varying degrees of body weight loss. […] On the days immediately following each EC17 dose, animals were scored and rescue agents such as sodium fluorescein, folic acid and leucovorin were used to mitigate CRS toxicity. […]"}, "MDA-MB-231 tumors": {"test_system": "MDA-MB-231 tumors", "experiment": "CAR-T therapy with EC17 fixed dose or dose de-escalation in mice bearing MDA-MB-231 tumors", "type": "in vivo", "from_the_text": "The effect of EC17 dose de-escalation was investigated on the anti-tumor activity and the toxicity (body weight changes) of CAR-T therapy. Two different anti-fluorescein scFv were used for the CAR constructions (FIG. 1). The first construct of CAR contains the following domains: antiFL(FITC-E2)scFv-IgG4 hinge (CH2 (L235D, N297Q)-CH3)-CD28 TM-4-1BB-CD3z-T2A-EGFRt. The second construct of CAR contains the following domains: antiFL(FITC-4M5.3)scFv-IgG4 hinge (CH2 (L235D, N297Q)-CH3)-CD28 TM-4-1BB-CD3z-T2A-EGFRt. The nucleic acid sequence and amino acid sequence of the CAR of each construct are shown as SEQ ID NOS:1 to 4. Human T cells were isolated, activated and transduced with a lentiviral vector carrying the appropriate CAR gene. CD4+ T cells with the CAR-modification and CD8+ T cells with the CAR-modification were isolated and cultured separately in vitro for about 7 days. CD4+ CAR-T cells and CD8+ CAR-T cells were mixed at a 1:1 ratio before i.v. administration for animal studies.\nThe second construct 4M5.3-CAR (antiFL(FITC-4M5.3) scFv-IgG4 hinge (CH2 (L235D, N297Q)-CH3)-CD28 TM-4-1BB-CD3z-T2A-EGFRt) was also evaluated. Mice bearing MDA-MB-231 tumors (150-250 mm^3) were used for in vivo studies to evaluate 4M5.3-CAR-T cells. […]"}}}
{"smiles": "O=C([O-])c1ccccc1-c1c2ccc(=O)cc-2oc2cc([O-])ccc12.[Na+].[Na+]", "note": "[sodium fluorescein]", "values": [{"measurement": "CAR-T cell derived human cytokines after rescue", "setting": "HOS-FRα tumor", "result": "acted very quickly to reduce CAR-T cell derived human cytokines"}, {"measurement": "antitumor activity after NaFL rescue", "setting": "MDA-MB-231 tumors; E2-CAR-T 10 and 20 million cells, EC17 500 nmol/kg SIW, NaFL 6 umol/kg", "result": "antitumor activity was maintained"}, {"measurement": "antitumor activity after NaFL rescue", "setting": "MDA-MB-231 tumors; E2-CAR-T 30 million cells with EC17 dose de-escalation", "result": "antitumor activity is maintained"}]}
